Measurements taken from patent US20030194738A1, “Antisense oligonucleotide compositions and methods for the modulation of activating protein 1” (priority 1997, published 2003).
Values joined by “and” are separate entries in the source; they are usually repeats but may differ in a detail not shown here. Identical values can stand only once. “Also recorded” adds a separate entry of the source. Strand notation (5' to 3'): a small letter for the sugar, then the base; units joined by * are phosphorothioate-linked, units joined directly phosphodiester-linked; [ ] holds rarer units or linkages, { } end groups; capitals alone tell only the bases. d = 2'-deoxy (DNA)

What was measured:
[1] = system: c-jun mRNA; experiment: c-jun mRNA expression in TPA-induced A549 cells, Northern blotting; format: cell-based, human; details: for effect on c-jun mRNA levels during TPA induction (in words) / c-jun (mRNA level, specificity experiment) / c-jun mRNA LEVELS (% CONTROL): A549 cells; for c-jun (mRNA level, specificity experiment): Table 5, TPA - no oligo = 100, basal = 23; for c-jun mRNA LEVELS (% CONTROL): TPA induction, 1 hour
Procedure: In order to evaluate the activity of potential c-fos and c-jun modulating oligonucleotides, A549 cells were grown in T-75 flasks until 80-90% confluent. (Cell line A549 is available from, inter alia, the American Type Culture Collection, Rockville, Md., as ATCC No. CCL-185.) At this time, the cells were washed twice with 10 mL of media (DMEM), followed by the addition of 5 mL of DMEM containing 20 μg/mL of LIPOFECTIN™ (i.e., DOTMA/DOPE (N-[1-(2,3-dioleyloxy)propyl]-N,N,N-[…] chloride/dioleoylphosphatidyl ethanolamine)). […] After 4 hours at 37° C., the medium was replaced with DMEM containing 10% serum. At this point, 1 μM 12-O-tetradecanoylphorbol 13-acetate (TPA) was added to induce expression of c-fos and c-jun. Cells were extracted in guanidinium one hour later, and the c-fos and c-jun mRNA expression was determined by Northern blotting. Probes for human c-jun and c-fos were PCR products prepared using primers based on the published sequences thereof (respectively, Hattori et al., Proc. Natl. Acad. Sci. U.S.A., 1988, 85:9148, and Van Straaten et al., Proc. Natl. Acad. Sci. U.S.A., 1983, 80:3183).

[2] = system: c-fos mRNA; experiment: c-fos mRNA expression in TPA-induced A549 cells, Northern blotting; format: cell-based, human; details: for c-fos (mRNA level, specificity experiment): Table 5, TPA - no oligo = 100, basal = 5
Procedure: In order to evaluate the activity of potential c-fos and c-jun modulating oligonucleotides, A549 cells were grown in T-75 flasks until 80-90% confluent. (Cell line A549 is available from, inter alia, the American Type Culture Collection, Rockville, Md., as ATCC No. CCL-185.) At this time, the cells were washed twice with 10 mL of media (DMEM), followed by the addition of 5 mL of DMEM containing 20 μg/mL of LIPOFECTIN™ (i.e., DOTMA/DOPE (N-[1-(2,3-dioleyloxy)propyl]-N,N,N-[…] chloride/dioleoylphosphatidyl ethanolamine)). The oligonucleotides were added from a 10 μM stock solution to a final concentration of 400 nM, and the two solutions were mixed by swirling the flasks. After 4 hours at 37° C., the medium was replaced with DMEM containing 10% serum. At this point, 1 μM 12-O-tetradecanoylphorbol 13-acetate (TPA) was added to induce expression of c-fos and c-jun. Cells were extracted in guanidinium one hour later, and the c-fos and c-jun mRNA expression was determined by Northern blotting. Probes for human c-jun and c-fos were PCR products prepared using primers based on the published sequences thereof (respectively, Hattori et al., Proc. Natl. Acad. Sci. U.S.A., 1988, 85:9148, and Van Straaten et al., Proc. Natl. Acad. Sci. U.S.A., 1983, 80:3183).
Finally, it can also be seen from Table 5 that neither active oligonucleotide has any detectable effect on mRNA levels of the other active oligonucleotide's target.
Once oligonucleotides that modulate c-Fos or c-Jun are identified, derivative or modified oligonucleotides having the same sequence thereas are prepared. In order to evaluate the effect of chemical modifications to oligonucleotides to c-fos and c-jun, the modified oligonucleotides described in Tables 8 and 9 were prepared. The effect of the c-fos-targeted oligonucleotides on c-fos RNA levels were evaluated as described in Examples 2-3. […] Other modified oligonucleotides of the invention are evaluated in like fashion. In order to evaluate the effect of PNA antisense analogs, the PNA analogs of the invention are introduced into appropriate cell lines by microinjection according to the method of Hanvey et al. (Science, 1992, 258:1481). Intracellular delivery of PNA analogs is confirmed by the use of a fluorescently tagged PNA antisense analog conjugate such as, e.g., ISIS 14240.

[3] = system: A549 tumors; experiment: Growth of A549 tumor fragments implanted subcutaneously in nude mice; format: in vivo; details: 25 mg/kg daily i.v. for three weeks; for Mean Tumor Weight: nude mice
Procedure: In order to evaluate the in vivo activity of c-fos oligonucleotides, 25 mg of tumor fragments of A549 tumors were implanted subcutaneously in nude mice (n=6). ISIS 10639 was administered daily, i.v., for three weeks. The oligonucleotide dosage was 25 mg/kg. […] By day 34, saline-treated tumors were 0.56±0.12 g by weight, while tumors treated with ISIS 10639 were 0.31±0.1 g by weight.

[4] = system: c-Fos protein; experiment: c-Fos protein levels in TPA-induced A549 cells, immunoblot; format: cell-based, human; details: TPA (1 uM) for three hours
Procedure: The ability of the c-fos active oligonucleotide ISIS 10639 to reduce expression of the c-Fos protein was examined as follows. A549 cells were treated with oligonucleotides as in Examples 2-3, except that induction of c-Fos was effected by treatment of cells with TPA (1 uM) for three hours. At this time, whole cell protein was extracted in SDS (sodium dodecyl sulfate) buffer. Samples of extracts were electrophoresed, transferred to nitrocellulose filters which were immunoblotted using a c-Fos-specific antibody (Santa Cruz AB, Santa Cruz, Calif.).

[5] = system: c-fos mRNA; experiment: c-fos mRNA expression in TPA-induced A549 cells, Northern blotting; format: cell-based, human; details: TPA induction, 1 hour
[6] = system: MMP-9; experiment: MMP-9 expression in TPA-induced normal human epidermal keratinocytes; format: cell-based; details: for MMP-9 (expression): Table 17, NHEK cells harvested 24 hours after TPA treatment for 4 hours, TPA - no oligo = 100, basal = 4
Description: The matrix metalloproteinases (MMPs) are a family of enzymes which have the ability to degrade components of the extracellular matrix (Birkedal-Hansen, Current Op. Biol., 1995, 7, 728). […] In particular, one member of this family, matrix metalloproteinase-9 (MMP-9), is often found to be expressed only in tumors and other diseased tissues (Himeistein et al., Invasion & Metastasis, 1994, 14, 246). Several studies have shown that regulation of the MMP-9 gene may be controlled by the AP-1 transcription factor (Kerr et al., Science, 1988, 242, 1242; Kerr et al., Cell, 1990, 61, 267; Gum et al., J. Biol. Chem., 1996, 271, 10672; Hua et al., Cancer Res., 1996, 56, 5279). In order to determine whether MMP-9 expression can be influenced by AP-1 modulation, the following experiments were conducted on normal human epidermal keratinocytes (NHEKs). Although NHEKs normally express no detectable MMP-9, MMP-9 can be induced by a number of stimuli, including TPA. ISIS 10582, an oligonucleotide targeted to c-jun, was evaluated for its ability to modulate MMP-9 expression according to the protocols described in Examples 2-3 with the following exceptions: (1) NHEK cells were used instead of A549 cells, (2) the probe used, a PCR product prepared using the published sequence of the MMP-9 gene (Huhtala et al., J. Biol. Chem., 1991, 266:16485; Sato et al., Oncogene, 1993, 8:395), is specific for MMP-9 rather than c-jun, and (3) the cells were harvested 24 hours after TPA treatment for 4 hours.

[7] = system: c-Jun; experiment: Induction of c-Jun by TNF-a, IL-1b or TGF-b in A549 cells; format: cell-based, human; details: for c-Jun induction by IL-1b: inducer IL-1b 10 ng/ml, No Oligo = 100, basal = 9; for c-Jun induction by TGF-b: inducer TGF-b 10 ng/ml, No Oligo = 100, basal = 2; for c-Jun induction by TNF-a: inducer TNF-a 10 ng/ml, No Oligo = 100, basal = 5
Procedure: Inducing agents other than TPA function to raise AP-1 levels in vivo. In order to assess the ability of oligonucleotides targeted to AP-1 to antagonize the action of three such inducers, A549 cells were treated and evaluated as in Examples 2 et seq. with the exception that TNF-a, IL-1b or TGE-b (each at 10 ng/mi and all from R&D Systems, Minneapolis, Minn.) were used in place of TPA as inducers.

[8] = 400 nM oligonucleotide with LIPOFECTIN, control is TPA induction, at 1 hour, in A549 cells
[9] = 400 nM oligonucleotide, TPA-induced A549 cells

AAG-TCC-TTG-AGG-CCC-ACA-GC (AAGTCCTTGAGGCCCACAGC; antisense; all phosphorothioate, sugars by position and methylation of C not given here) [ISIS 10639]
effect on c-jun mRNA levels during TPA induction (in words) [1]: no detectable effect | c-jun (mRNA level, specificity experiment) [1]: 97 | c-fos mRNA % CONTROL [2, 8]: 9 % CONTROL | inhibition of c-fos mRNA expression [2, 9]: 91% | c-fos mRNA LEVELS (% CONTROL) ([2]; 400 nM oligonucleotide, TPA induction, 1 hour, A549 cells): 9 % CONTROL | effect on c-fos mRNA levels during TPA induction (in words) ([2]; A549 cells): dose-dependent; also recorded: potent and specific inhibition | c-fos (mRNA level, specificity experiment) ([2]; A549 cells): 9 | c-fos (expression, modified oligonucleotides) ([2]; Table 10, TPA - no oligo = 100, basal = 3, A549 cells): 9 | tumor growth rate (in words) ([3]; versus saline): substantial reduction | Mean Tumor Weight ([3]; Day 17): 0.105 g | Mean Tumor Weight ([3]; Day 20): 0.138 g | Mean Tumor Weight ([3]; Day 27): 0.225 g | Mean Tumor Weight ([3]; Day 34, 25 mg/kg): 0.31 ± 0.1 g and 0.310 g | c-Fos protein level (in words) ([4]; A549 cells): basal levels | c-Fos (protein level) ([4]; Table 7, TPA - no oligo = 100, basal = 21): 19 | c-fos mRNA LEVELS (% CONTROL) ([5]; 50 nM oligonucleotide): 64 % CONTROL | c-fos mRNA LEVELS (% CONTROL) ([5]; 100 nM oligonucleotide): 46 % CONTROL | c-fos mRNA LEVELS (% CONTROL) ([5]; 200 nM oligonucleotide): 20.5 % CONTROL

CAC-CTC-CAC-GCG-CTT-CTG-GC (dC*dA*dC*dC*dT*dC*dC*dA*dC*dG*dC*dG*dC*dT*dT*dC*dT*dG*dG*dC; antisense) [ISIS 11563]
c-fos (mRNA level, specificity experiment) ([2]; A549 cells): 99 | MMP-9 (expression) [6]: 95 | stimulation / induction of c-Jun by TNF-a or IL-1b (in words) [7]: did not reverse | c-Jun induction by IL-1b [7]: 94 | c-Jun induction by TGF-b [7]: 99 | c-Jun induction by TNF-a [7]: 98

TCG-GCA-CCT-GAA-GGA-CTT-TC (dT*dC*dG*dG*dC*dA*dC*dC*dT*dG*dA*dA*dG*dG*dA*dC*dT*dT*dT*dC; antisense) [ISIS 11564]
effect on c-jun mRNA levels during TPA induction (in words) [1]: no detectable effect | c-jun (mRNA level, specificity experiment) [1]: 71 | c-fos (mRNA level, specificity experiment) ([2]; A549 cells): 99 | MMP-9 (expression) [6]: 89

TCA-GCC-CCC-GAC-GGT-CTC-TC (dT*dC*dA*dG*dC*dC*dC*dC*dC*dG*dA*dC*dG*dG*dT*dC*dT*dC*dT*dC; antisense) [ISIS 10582]
c-jun mRNA LEVELS (% CONTROL) ([1]; 50 nM oligonucleotide): 72 % CONTROL | c-jun mRNA LEVELS (% CONTROL) ([1]; 100 nM oligonucleotide): 45.5 % CONTROL | c-jun mRNA LEVELS (% CONTROL) ([1]; 200 nM oligonucleotide): 29.5 % CONTROL | c-jun mRNA % CONTROL [1, 8]: 17 % CONTROL | inhibition of c-jun mRNA expression [1, 9]: 83% | c-jun mRNA LEVELS (% CONTROL) ([1]; 400 nM oligonucleotide): 16 % CONTROL | effect on c-jun mRNA levels during TPA induction (in words) [1]: dose-dependent; also recorded: potent and specific inhibition | c-jun (mRNA level, specificity experiment) [1]: 4 | effect on c-fos mRNA levels during TPA induction (in words) ([2]; A549 cells): no detectable effect | c-fos (mRNA level, specificity experiment) ([2]; A549 cells): 91 | expression of MMP-9 after induction with TPA (in words) ([6]; NHEK cells): completely inhibit | MMP-9 (expression) [6]: 6 | stimulation / induction of c-Jun by TNF-a or IL-1b (in words) [7]: effectively reduces | c-Jun induction by IL-1b [7]: 15 | c-Jun induction by TGF-b [7]: 95 | c-Jun induction by TNF-a [7]: 20
